How the values were obtained:
[1] = Pharmacokinetic studies with 14C-paclitaxel or 3H-PLGA; parameters: species or system Sprague Dawley rats; details: male, Sprague Dawley, rat, in vivo
Procedure: 12 male Sprague Dawley rats weighing approximately 250 g with bilateral jugular catheters were obtained from Charles River Laboratories (Wilmington, Mass.). […] 200-500 μL of blood was collected via the right catheter at 1, 3, 6, 9 and 24 h after injection (n=6). In a separate study to assess targeted lipid-polymeric nanoparticle polymer levels in circulation, 400 μl, of NPs synthesized with ^3H-PLGA was injected in saline (100 μCi/mL) and 100 μL of blood was collected at 1, 3, 6, 9, 24, 48, 96 and 120 h after injection (n=6). Blood radioactivity was quantified as disintegrations per minute (DPM) using the PerkinElmer Tri-Carb 2810TR liquid scintillation analyzer.
Blood and tissue samples were processed as described by Chan J M, et al. Methods Mol. Biol. 2010; 624:163-175, with modifications. Solvable tissue solubilizer and Hionic-Fluor scintillation cocktail were purchased from PerkinElmer (Waltham, Mass.). All samples were weighed before processing. To prepare blood samples for radioisotope counting, 1.5 mL of tissue solubilizer was added to ≦0.5 mL blood and incubated at 55-60° C. for 2 h to dissolve the blood samples. Next, 50 μL of 0.5 mol/L EDTA-di-sodium salt solution was added to reduce foaming and 0.5 mL of hydrogen peroxide (300 g/L) was added dropwise with gentle agitation. Samples were further incubated at 55-60° C. for 1 h. To prepare tissue samples for radioisotope counting, kidney, spleen, liver, heart, and lung tissues (≦150 mg) were similarly processed, except with 4.0 mL of tissue solubilizer instead. Finally, 16 mL of Hionic-Fluor scintillation cocktail was added to both blood and tissue samples, and samples were subjected to temperature and light-adaptation for 1 h before counting. Sample radioactivity was read as disintegrations per minute (DPM) of either ^14C or ^3H radioisotopes using the PerkinElmer Tri-Carb 2810TR liquid scintillation analyzer, and standardized as DPM per gram of tissue or blood (DPM/g) based on the weight of the sample. […]

[2] = in vivo; details: male, Swiss albino, mouse, in vivo, iv
Procedure: (§1) Clinical monitoring over seven days was carried out for any signs of adverse effects.
(§2) At the end of the study, animals were sacrificed by CO2 inhalation. Gross necropsy was performed and H&E sections of the major organs (liver, lung, heart, spleen, kidney, nerves) were examined for any signs of toxicity.

[3] = system: Swiss albino mice; assay: in vivo
Procedure: as §1, §2

[4] = biological target: Matrigel; assay: Sequence-specific competition binding of phage clones against synthetic peptide equivalents; details: synthetic peptide vs cognate phage on Matrigel, n=3
Procedure: Matrigel-coated and blocked 96-well plates were incubated in triplicate with 10^−5-10^−10 M peptide concentrations and 10^9 pfu of phage in 100 μL 0.5% TEST. After 1 h at RT, bound phages were labeled with anti-M13 mAb and color was developed and detected using ABTS absorbance (405-490 nm). Peptide inhibition curves were normalized on a percentage scale to provide an estimate of the IC50, which was calculated using a dose-response curve fit using the Origin 8 data analysis software (Northampton, Mass.) by the formula:
Y=Bottom+(Top−Bottom)/(1+10̂((Log IC50−X)*HillSlope)).

[5] = system: Matrigel; assay: Phage clone binding to Matrigel (anti-M13 ELISA, ABTS absorbance); details: ABTS absorbance 405 nm vs 490 nm, 10^10 p.f.u. per clone
Procedure: 96-well plates were coated with 100 μL 1/50 dilutions of Matrigel in TBS overnight at 4° C., or TBS buffer only. Plates were blocked with 3% BSA/TBS for 2 h at RT and washed three times. 10^10 p.f.u. of each phage clone was added in 0.5% TBST in triplicate to either Matrigel or BSA-coated wells. Bound phage particles were detected with peroxidase-conjugated mouse anti-M13 monoclonal antibodies at 1/5000 dilution (Amersham Pharmacia Biotech, Piscataway, N.J.). After a 1 h incubation, the reaction was developed with 2,2′-azino-bis(3-ethylbenzthiazoline-6-sulphonic acid) (ABTS) (Amersham) and the absorbance was read at 405 nm against a reference wavelength of 490 nm with a SpectraMax Plus 384 Microplate reader (Molecular Devices, Sunnyvale, Calif.).

[6] = system: Matrigel; assay: Phage titer count analysis on Matrigel; type: binding; details: phage input 10^12/mL p.f.u., n=3
Description: (§3) In a sequence-specific competition assay, the context-dependence of the phage towards the peptide-collagen IV binding interaction was investigated. […] The binding of phage C-11 was investigated in three independent titer count analyses. Phage titers of C-11 were compared against the library (R0) for binding to Matrigel and collagen IV with an initial phage input of 10^12/mL plaque forming units (p.f.u.).

[7] = system: collagen IV; assay: Phage titer count analysis on collagen IV; type: binding, human; details: phage input 10^12/mL p.f.u., n=3
Description: as §3

[8] = 168 h after single i.v. dose, paclitaxel 10 mg/kg, targeted nanoparticles 35 mg/kg, mean ± SD n=6

**Q.** Which “time after which levels in circulation could not be further detected” value [1] does the source give for `CC(=O)O[C@H]1C(=O)[C@@]2(C)[C@H]([C@H](OC(=O)c3ccccc3)[C@]3(O)C[C@H](OC(=O)[C@H](O)[C@@H](NC(=O)c4ccccc4)c4ccccc4)C(C)=C1C3(C)C)[C@]1(OC(C)=O)CO[C@@H]1C[C@@H]2O` [paclitaxel] here?
**A.** 24 h

**Q.** What about the “t1/2α (h), half-life of distribution phase” value ([1]; iv) of the same compound?
**A.** 0.64 h

**Q.** And the “t1/2β (h), half-life of elimination phase” value ([1]; iv)?
**A.** 8.02 h

**Q.** And the MTD [2]?
**A.** 10 mg/kg

**Q.** And the “hematological finding at day 7” value ([3]; 10 mg/kg, platelet count<400×10^9/L in two mice)?
**A.** signs of mild thrombocytopenia

**Q.** What about the lethality ([3]; 15 mg/kg dose, 1.2 mg/mL, mice i.v.) of the same compound?
**A.** immediate death of two mice

**Q.** What about the “ALP, alkaline phosphatase” value [3, 8] of the same compound?
**A.** 41.7 ± 1.77 U/L

**Q.** And the “Baso, basophils” value [3, 8]?
**A.** 0.140 ± 0.078%

**Q.** What about the “Eo, eosinophils” value [3, 8] of the same compound?
**A.** 0.0023 ± 0.004%

**Q.** What about the “HGB, hemoglobin” value [3, 8] of the same compound?
**A.** 8.81 ± 0.49 mmol/L

**Q.** And the “LYMPH, lymphocytes” value [3, 8]?
**A.** 0.69 ± 0.13%

**Q.** What about the “MCH, mean cell hemoglobin” value [3, 8] of the same compound?
**A.** 17.1 ± 0.679 pg

**Q.** And the MCHC [3, 8]?
**A.** 17.9 ± 0.47 mmol/L

**Q.** And the “MCV, mean cell volume” value [3, 8]?
**A.** 59.5 ± 1.55 fL

**Q.** What about the “Mono, monocytes” value [3, 8] of the same compound?
**A.** 0.167 ± 0.064%

**Q.** And the “NEUT, neutrophils” value [3, 8]?
**A.** 0.002 ± 0.002%

**Q.** And the “PLT, platelets” value [3, 8]?
**A.** 1026 ± 533 ×10^9/L

**Q.** What about the “RBC, red blood cells” value [3, 8] of the same compound?
**A.** 8.30 ± 0.598 ×10^12/L

**Q.** And the “WBC, white blood cells” value [3, 8]?
**A.** 2.05 ± 0.454 ×10^9/L

**Q.** What about the “ALT, alanine aminotransferase” value ([3]; mouse, in vivo) of the same compound?
**A.** 61.01 ± 6.10 U/L

**Q.** What about the “AST, aspartate aminotransferase” value ([3]; mouse, in vivo) of the same compound?
**A.** 119.83 ± 8.23 U/L

**Q.** With “KVWSLPQ [Clone A-8, heptapeptide from phage display against collagen IV; phage clone and synthetic peptide equivalent]” as the compound, how does the IC50 [4] read?
**A.** 1200 nM

**Q.** What about the “binding to Matrigel compared with the random library (R0)” value [5] of the same compound?
**A.** best candidates

**Q.** What does the source list for “KIWKLPQ [Clone C-10, heptapeptide from phage display against collagen IV; phage clone and synthetic peptide equivalent]”?
**A.** IC50 [4]: 917 nM; binding to Matrigel compared with the random library (R0) [5]: best candidates

**Q.** Which IC50 [4] does the source give for “KLWVLPK [Clone C-11, heptapeptide from phage display against collagen IV; phage clone and synthetic peptide equivalent]” here?
**A.** 117 nM

**Q.** What about the “Matrigel binding compared to the library (phage titer)” value [6] of the same compound?
**A.** approximately 300 fold

**Q.** What about the “collagen IV binding compared to the library (phage titer)” value [7] of the same compound?
**A.** approximately 900 fold

**Q.** What about the “binding to Matrigel compared with the random library (R0)” value [5] of the same compound?
**A.** best candidates

**Q.** For “KIFVWPY [Clone A-9, heptapeptide from phage display against collagen IV; phage clone and synthetic peptide equivalent]”, which IC50 [4] is on record?
**A.** 551 nM

**Q.** What about the “binding to Matrigel compared with the random library (R0)” value [5] of the same compound?
**A.** best candidates
